Tested on: HIV-1 LTR-III G-quadruplex (FAM/TAMRA-labeled LTR-III)
Assay: FRET melting assay, LTR-III G4
Type: binding
Conditions: Table S1 primary screening, ligand:ODN 50:1, singlicate
Procedure: To evaluate stabilizing properties of the ligands in a complex with oligodeoxyribonucleotides (ODNs) melting with fluorescence registration was used. ODN (0.5 μM) (Table 1), labeled with 6-carboxyfluorescein (FAM) and 6-carboxytetramethylrhodamine (TAMRA) at the 5′- and 3′-end, respectively, were folded in lithium cacodylate buffer (10 mM, pH 7.4) with 100 mM KCl by heating at 95 °C for 5 min and gradually cooling to r.t. GFP chromophore analogs (5 mM solution in DMSO) were diluted with the same buffer to the final concentration of 25 μM and mixed with an equal volume of 0.5 μM ODN solution resulting in a molar ratio of 50:1 (total volume was 50 μL). For the titration experiments molar ratios of 20:1 and 2:1 were used. Samples were analyzed using DTprime qPCR system (DNA-Technology LLC, Moscow, Russia). Fluorescence was registered by detection of FAM emission at 520 nm upon excitation at 495 nm in the temperature range of 30–95 °C with 1 °C/min gradient. Tm was determined using the instrument software and ΔTm was calculated relative to ODN Tm in a buffer solution containing 0.25% (v/v) DMSO. The primary and secondary screening were carried out in singlicate and triplicate, respectively.

SMILES	LTR-III ΔTm [°C]
CN1C(=O)C(=Cc2ccc(O)cc2)N=C1C=Cc1ccc2cc(N(C)C)ccc2c1 [N 861]	0
CC(C)OC(=O)c1noc(C(=O)NC2CCCCC2)c1-c1cccs1 [AL 25]	-0.1
CC(C)OC(=O)c1noc(=O)c(O)c1-c1cccc(C(F)(F)F)c1 [SA 305B]	-0.5
CC1=NC(=Cc2cc(Br)c(O)c(Br)c2)C(=O)N1C [M 906]	-2.7
CN1C(=O)C(=Cc2ccc(O)cc2)N=C1C=CC=Cc1ccccc1 [ccA 4]	0.8
COc1ccc(C=CC2=NC(=Cc3cc4cc(OC)ccc4cc3OC)C(=O)N2C)cc1 [AI 126]	1.6
CC1=NC(=Cc2ccc(O)c(F)c2)C(=O)N1CC(N)=O [SA 99]	0.1
CC(C)OC(=O)c1noc(C(=O)NCc2ccccc2)c1-c1ccc(C(C)C)cc1 [SA 342B]	-0.5
CC(C)CCC1=NC(=Cc2ccc(O)cc2)C(=O)N1C [GA 18]	-0.1
CC1=NC(=Cc2cccc(C(F)(F)F)c2)C(=O)N1C [M 2375]	-0.2
CCN(CC)c1ccc(C=C2NC(=S)NC2=O)cc1 [AL 172]	-0.2
CC1=NC(=Cc2ccncc2)C(=O)N1CC(=O)O [ZS 69]	-0.4
CC=CC=CC1=NC(=Cc2ccc(O)cc2)C(=O)N1C [ccA 8]	0.2
CC(C)OC(=O)c1noc(=O)c(O)c1-c1ccccc1 [SA 300A]	0.1
CCN(CC)c1ccc(C=C2N=C(C)N(CCNC(=O)OC(C)(C)C)C2=O)cc1 [M 2026c]	0.2
CC1=NC(=Cc2ccco2)C(=O)N1C [M 1583.2]	-0.5
CC(C)OC(=O)c1noc(C(=O)N2CCOCC2)c1-c1ccc(C(C)C)cc1 [SA 342A]	-0.3
CC1=NC(=Cc2ccc(O)c(C#N)c2)C(=O)N1C [M 2489.2]	-0.5
COC(=O)c1noc(C(=O)N2CCCC2)c1-c1ccc(OC)cc1 [SA 561B]	-0.6
CN1C(=O)/C(=C/c2ccc(O)cc2)N=C1/C=C/c1ccc(O)cc1 [ccA 2]	0.4
CC1=NC(=Cc2ccc([N+](=O)[O-])cc2)C(=O)N1Cc1ccccc1 [ZS 143]	-0.9
C=CCOc1ccc(C=C2N=C(C)N(C)C2=O)cc1 [X 8]	0
COc1cc(O)ccc1C=C1N=C(C=CN2CCCC2)N(C)C1=O [N 1118]	3

SMILES	LTR-III ΔTm [°C]
CC1=NC(=Cc2ccccc2F)C(=O)N1C [SV 50.9]	-0.2
COc1ccc(N)cc1C=C1N=C(C)N(C)C1=O [ZS 62]	0
CCN(CC)c1ccc2cc(C=C3N=C(C)N(C)C3=O)ccc2c1 [N 601.23]	-0.7
COc1ccc(C(N)=C2N=C(C)N(C)C2=O)cc1 [ZS 99]	-0.2
CN(C)C=CC1=NC(=Cc2ccc(O)cc2)C(=O)N1C [M 995a]	0.1
CCN(CC)c1ccc(C=C2N=C(C=Cc3ccncc3)N(C)C2=O)cc1 [M 895]	0.8
O=C1NC(=S)SC1=Cc1ccc(O)cc1 [HBR]	-0.2
CC1=NC(=Cc2ccc3c(c2)CCN3)C(=O)N1C [N 652.3]	0.3
CC(C)OC(=O)c1noc(C(=O)NC2CCCCC2)c1-c1ccccc1F [SA 331D]	-0.7
COc1cc(O)ccc1/C=C1\N=C(C(C)=O)N(C)C1=O [N 1124]	1.3
CN1C(=O)C(=Cc2ccc(O)cc2)N=C1C=Cc1ccc(C(=O)O)cc1 [ccA 16]	0.8
COc1ccccc1C=C1N=C(C)N(C)C1=O [M 1583.5]	0.1
COc1cc(O)ccc1C=C1N=C(c2cccs2)N(C)C1=O [SH 016.3B]	0.9
COc1ccc(/C=C2\N=C(C)N(C)C2=O)cc1OC [M 1583.6]	0
COc1ccc(C=C2N=C(C=C(SC)c3ccccc3)N(C)C2=O)cc1 [SA 474.1]	0
CCOC(=O)/C=C/c1ccc(O[Si](c2ccccc2)(c2ccccc2)C(C)(C)C)cc1 [M 1352]	-0.5
CCN(CC)c1ccc(C=C2N=C(C)NC2=O)cc1 [M 1045]	0.1
CCC1=NC(=Cc2ccc(O[Si](c3ccccc3)(c3ccccc3)C(C)(C)C)cc2)C(=O)N1O[Si](c1ccccc1)(c1ccccc1)C(C)(C)C [M 1505]	-0.3
CC1=NC(=Cc2ccc(Br)c([N+](=O)[O-])c2)C(=O)N1C [SV 52.8]	0.6
COc1ccc(-c2c(C(=O)OC(C)C)noc2C(=O)NC2CCCCC2)cc1 [SA 341B]	-0.2
CC1=NC(=Cc2ccncc2)C(=O)N1CCNC(=O)OC(C)(C)C [M 2250.2]	-0.1
CNC(=O)c1cc(C=C2N=C(C=Cc3cc(Br)c(O)c(Br)c3)N(C)C2=O)ccc1O [ccD 2]	0.2
CC(C)OC(=O)c1noc(C(=O)N2CCCC2)c1-c1ccc(N(C)C)cc1 [SA 332.2]	-0.4

SMILES	LTR-III ΔTm [°C]
CCCC1=N/C(=C\c2ccncc2)C(=O)N1C [M 2237]	-0.3
CCOC(=O)CN1C(=O)C(=Cc2ccc(O)cc2)N=C1C [M 1831.1]	-0.2
COc1ccc(/C=C2N=C(/C=C/N3CCOCC3)N(C)C\2=O)cc1 [M 2371c]	-0.1
COc1cc(O)cc(OC)c1C=C1N=C(C=Cc2c(F)c(F)nc(F)c2F)N(C)C1=O [N 971]	0.1
CC(C)OC(=O)c1noc(=O)c(O)c1-c1ccc(O)cc1 [AL 23]	0
CC(C)(C)[Si](Oc1ccc(C=C2NC(=S)NC2=O)cc1)(c1ccccc1)c1ccccc1 [VZ 2]	-0.2
CCCC1=NC(=C(NB(F)F)c2ccccc2)C(=O)N1 [M 1878.1]	-1.5
CC1=NC(=Cc2ccc[nH]2)C(=O)N1C [N 815]	-0.1
CN1C(=O)C(=Cc2ccc(O)cc2)N=C1C(=O)c1ccccc1 [M 2372a]	0.1
CN1C(=O)C(=Cc2ccc(SSc3ccc(C=C4N=C(C=Cc5cc(Br)c(O)c(Br)c5)N(C)C4=O)cc3)cc2)N=C1C=Cc1cc(Br)c(O)c(Br)c1 [N 898]	0.1
CCCC1=NC(=Cc2ccc(O[Si](c3ccccc3)(c3ccccc3)C(C)(C)C)cc2)C(=O)N1C [M 1550]	-0.1
Cc1ccc(C(O)=CC2=NC(=Cc3ccc(O)cc3)C(=O)N2C)cc1 [N 154]	-0.1
CC(=O)NCCN1C(=O)C(=Cc2ccc(O)cc2)N=C1C=Cc1ccc(O)cc1 [ccE 2]	-0.1
CSC1=NC(=Cc2ccc(O)cc2)C(=O)N1C [SA 581]	1
CC(C)(C)[Si](Oc1ccc(C=CC=O)cc1)(c1ccccc1)c1ccccc1 [M 1373.2]	-0.5
CCN(CC)c1ccc(C=C2N=C(C)N(CCCC(=O)O)C2=O)cc1 [M 820]	0.1
CC1=NC(=Cc2ccc(N3CCCCCC3)cc2)C(=O)N1C [N 708.2]	0.2
CCC(=O)C1=NC(=Cc2ccc(O)cc2)C(=O)N1C [M 2372в]	-0.2
CC1=NC(=Cc2ccc(C(=O)O)cc2)C(=O)N1C [AI 89]	-0.5
COc1ccc(C(O)(c2ccccc2)c2ccccn2)cc1 (stereo not shown) [M 1136]	-0.7
CC1=N/C(=C\c2ccccc2O[Si](c2ccccc2)(c2ccccc2)C(C)(C)C)C(=O)N1C [M 1586]	-0.3

From publication PMC8533149 (Biomolecules, 2021)
